Laboratory results as given in patent publication US7862751B2, “Formulation of fine particles using liquefield or dense gases” (MAP Pharmaceuticals, Inc., priority 2002, dated 2011).

Columns and labels:
[1] = cited from earlier work
Particle size by SEM = format: physicochemical; conditions: processed with CO2 at 190 bar, 50° C. and 25° C.
Method: SEM images at 2 different magnifications, namely 100× (FIG. 11a) and 2510× (FIG. 11b), of fenofibrate processed at 50° C. and 190 are shown in FIG. 11.
SEM images were taken, using a Hitachi S4500 electron microscope. The samples were chromium coated for 60 seconds with a current of 125 mA, with a Emitech E4500 coater.

[2] = coadministration of cyclosporine; J Clin Oncol 2001; cited from earlier work

SMILES: Cc1ccc(C)c(OCCCC(C)(C)C(=O)O)c1 [gemfibrozil, 5-(2,5-dimethylphenoxy)-2,2-dimethylpentanoic acid]
- solubility in water [1]: very poorly soluble
- particle size (Particle size by SEM): approximately 5 microns

SMILES: CC(=O)O[C@@]12CO[C@@H]1C[C@H](O)[C@@]1(C)C(=O)[C@H](O)C3=C(C)[C@@H](OC(=O)[C@H](O)[C@@H](NC(=O)OC(C)(C)C)c4ccccc4)C[C@@](O)([C@@H](OC(=O)c4ccccc4)[C@H]21)C3(C)C [docetaxel]
- bioavailability [2]: strongly enhanced
